Laboratory results from US10220028B2, “Thio compounds” (The United States of America, as represented by the …, priority 2011, dated 2019).
“Also recorded” adds a separate entry of the source.

Experiments:
RAW 264.7 cells = experiment: Cellular toxicity, lactate dehydrogenase (LDH) assay; format: cell-based; conditions: from 60 min after addition of LPS, vs DMSO control, FIG. 1
[1] = test system: LPS stimulated RAW 264.7 cells; experiment: Cellular proliferation/health, MTS assay; format: cell-based; conditions: for cell stress (changes in O.D. values of the MTS assay): FIG. 4
Protocol: The CellTiter 96 AQueous One Solution Cell Proliferation Assay (Promega, Madison, Wis.) is routinely used as an assay of cell proliferation, and was used herein, according to the manufacturer's recommendations. […] Optical densities were measured after 1 to 2 hours incubation and were expressed as a % change from their appropriate control.

nitrite = experiment: Nitrite levels, Griess Reagent System assay; format: cell-based; conditions: LPS stimulated RAW 264.7 media; FIG. 3
Protocol: Nitrite levels in the culture media were measured by use of the Griess Reagent System (Promega, Madison, Wis.), following the manufacturer's protocol. The O.D. of unknown samples was read at 520 nm A, compared to a sodium nitrite standard curve (1.5 μM to 100 μM) and nitrite measured media concentrations expressed as a % change from their appropriate control.

TNF-α protein = TNF-α protein assay (ELISA) in LPS stimulated RAW 264.7 culture media; format: cell-based, mouse; conditions: LPS stimulated RAW 264.7 cells; vs DMSO control
Protocol: TNF-α protein levels were measured by use of an ELISA specific for mouse TNF-α protein (BioLegend, San Diego, Calif.), O.D.s measured at 450 nm λ, obtained from the unknown samples were compared to a TNF-α protein standard curve (7.8 to 500 pg/ml) and the calculated TNF-α levels are expressed as a % change from their appropriate control or as pg/ml.

IFN-γ = experiment: Generation of IFN-γ by TCR-stimulated T cells (cytokine ELISA); format: cell-based, human; conditions: FIG. 5A; for concentration at which significant inhibition of IFN-γ generation begins: TCR-stimulated T cells
Protocol: (§1) FIGS. 5A-5C. Concentration-dependence of effects of certain compounds on human T cell generation of cytokines. Each column and bar depicts the mean±S.D. of the results of cytokine ELISAs of supernates from T cells of a total of four healthy subjects, of whom two were young and two were old, after three days of incubation with anti-CD3+ anti-CD28 antibodies without (control=100%) and with a drug. The mean±S.D. of control (100%) values for IFN-γ, IL-2 and IL-17, respectively, where 30,915±11,206, 5.8±3.4 and 1149±372 pg/ml. A=IFN-γ, B=IL-2 and C=IL-17. Statistical significance of differences from the controls without an IMD was calculated by a two-sample t test and indicated by + for p<0.05,*for p<0.01 and**for p<0.001.
(§2) The capacity of several different compounds to alter the generation of three distinct immune cytokines by TCR-stimulated T cells of young and old subjects was investigated.

IL-2 = experiment: Generation of IL-2 by TCR-stimulated T cells (cytokine ELISA); format: cell-based, human; conditions: FIG. 5B; for concentration at which significant inhibition of IL-2 generation begins: stimulated T cells
Protocol: as §1, §2

IL-17 = experiment: Generation of IL-17 by TCR-stimulated T cells (cytokine ELISA); format: cell-based, human; conditions: FIG. 5C
Protocol: as §1
No compound was capable of enhancing TCR-stimulated T cell generation of IL-17. However, there was significant inhibition of generation of IL-17 by dithiolenalidomide at 0.1 μM and higher, lenalidomide at 0.3 μM and higher, dithiothalidomide at 3 μM and higher, and thalidomide only at 100 μM (FIG. 5C). None of the thalidomide-type drugs altered cytokine generation alone in the absence of TCR-directed stimulation (data not shown).

Structure (SMILES)	cellular stress (O.D. values, LDH assay) (RAW 264.7 cells)	cellular stress (MTS assay) ([1]; concentrations that far exceed 20 μM, LPS stimulated RAW 264.7 cells, FIG. 3)	toxicity compared to dithiothalidomide ([1]; particularly at drug concentrations or 10 μm or greater)	levels of nitrite in cell culture media (nitrite)	levels of TNF-α protein in cell culture media (TNF-α protein)	concentration at which significant inhibition of IFN-γ generation begins (IFN-γ) [µM]	concentration at which significant inhibition of IL-2 generation begins (IL-2) [µM]	concentration at and above which IL-17 generation is significantly inhibited (IL-17) [µM]	cellular health (MTS assay), relative to 100% control ([1]; 20 μM, LPS stimulated RAW 264.7 cells, FIG. 3)	cellular stress (MTS assay) ([1]; 20 μM, LPS stimulated RAW 264.7 cells, vs DMSO control, FIG. 3)	cell stress (changes in O.D. values of the MTS assay) [1]	peak enhancement of IFN-γ generation (IFN-γ; at 3 μM)	mean maximal enhancement of IL-2 generation (IL-2; at 1 μM, mixed group of young and old subjects) [fold]	inhibition of IFN-γ generation (IFN-γ; at 100 μM)	effect on IL-2 generation (IL-2; at up to 100 μM)
Nc1cccc2c1CN(C1CCC(=S)NC1=O)C2=S (stereo not drawn) [dithiolenalidomide, 1,6′-Dithiolenalidomide]	no evidence of cellular stress	failed to induce any cellular stress	less toxic compared to dithiothalidomide	reduced the levels of nitrite	retained TNF-α inhibitory effect; also recorded: reduced the levels of TNF-α protein	≥ 1	≥ 3	≥ 0.1							
O=C1NC(=S)CCC1N1C(=O)c2ccccc2C1=S (stereo not drawn) [dithiothalidomide, 3,6′-Dithiothalidomide]	evidence of cellular stress			reduced the levels of nitrite	reduced the levels of TNF-α protein	≥ 3	≥ 30	≥ 3	reduction from the 100% control values	evidence of cellular stress					
Nc1cccc2c1CN(C1CCC(=O)NC1=O)C2=O (stereo not drawn) [lenalidomide]								≥ 0.3			Neither thalidomide and lenalidomide treatment induced any cell stress	nearly three-fold	9.5		
O=C1CCC(N2C(=O)c3ccccc3C2=O)C(=O)N1 (stereo not drawn) [thalidomide, N-α-phthalimidoglutarimide]								100			Neither thalidomide and lenalidomide treatment induced any cell stress			only modest inhibition	no detectable effect
